Assay results reported in ChEMBL document CHEMBL1649540, “The novel CXCR4 antagonist KRH-3955 is an orally bioavailable and extremely potent inhibitor of human immunodeficiency virus type 1 infection: comparative studies with AMD3100” (Antimicrob Agents Chemother, 2009).
Active and inactive are the calls of the source. The rule behind the calls is not given here.

Assays:
[1] = tested on: Human immunodeficiency virus 1; assay: Antiviral activity against HIV1 89.6 infected in human PBMC assessed as inhibition of viral p24 antigen production after 7 to 10 days by ELISA; assay type: functional, organism-based; conditions: Human immunodeficiency virus 1, 89.6
[2] = biological target: C-X-C chemokine receptor type 4 (Homo sapiens, UniProt P61073, H113A)
Sequence of C-X-C chemokine receptor type 4 (Homo sapiens, UniProt P61073, H113A) (P61073 whole entry H113A): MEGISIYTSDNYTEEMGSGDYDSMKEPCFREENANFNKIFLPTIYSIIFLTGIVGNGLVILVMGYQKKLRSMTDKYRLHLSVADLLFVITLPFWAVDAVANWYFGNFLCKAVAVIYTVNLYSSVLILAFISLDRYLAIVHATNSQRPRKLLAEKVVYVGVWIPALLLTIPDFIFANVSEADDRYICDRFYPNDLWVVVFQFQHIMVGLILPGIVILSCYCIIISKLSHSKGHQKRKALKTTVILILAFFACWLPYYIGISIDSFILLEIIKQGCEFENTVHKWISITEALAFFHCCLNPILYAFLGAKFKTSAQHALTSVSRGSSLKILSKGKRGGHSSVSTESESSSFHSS

[3] = tested on: C-X-C chemokine receptor type 4 (Homo sapiens), P61073 [D171A]; conditions: HEK293
Sequence of C-X-C chemokine receptor type 4 (Homo sapiens), P61073 [D171A] (P61073 whole entry D171A): as the sequence (P61073 whole entry H113A) above, with A113H, D171A counted along it

[4] = biological target: C-X-C chemokine receptor type 4 (Homo sapiens, UniProt P61073, E277A)
Sequence of C-X-C chemokine receptor type 4 (Homo sapiens, UniProt P61073, E277A) (P61073 whole entry E277A): as the sequence (P61073 whole entry H113A) above, with A113H, E277A counted along it

[5] = Cmax in Sprague-Dawley rat at 10 mg/kg, po administered as single dose; assay type: ADME, organism-based; design: dose 10 mg/kg, route oral; conditions: in vivo
[6] = tested on: Human immunodeficiency virus 1; assay: Antiviral activity against HIV1 JRCSF infected in human PBMC assessed as inhibition of viral p24 antigen production after 7 to 10 days by ELISA; assay type: functional; conditions: Human immunodeficiency virus 1, JRCSF ISOLATE
[7] = biological target: T1, C-X-C chemokine receptor type 4 (Homo sapiens, UniProt P61073); assay: Inhibition of Mab 12G5 binding to CXCR4 expressed in human MOLT4 cells at 10 nM by FACS analysis; assay type: cell-based; conditions: MOLT-4
T1 sequence (P61073 whole entry): as the sequence (P61073 whole entry H113A) above, with A113H counted along it

[8] = biological target: C-X-C chemokine receptor type 4 (Homo sapiens, UniProt P61073, D262A)
Sequence of C-X-C chemokine receptor type 4 (Homo sapiens, UniProt P61073, D262A) (P61073 whole entry D262A): as the sequence (P61073 whole entry H113A) above, with A113H, D262A counted along it

[9] = tested on: Human immunodeficiency virus 1; assay: Antiviral activity against T20-resistant HIV1 NL4-3 infected in HEK293 cells assessed as inhibition of viral replication after 2 days; assay type: functional, organism-based; conditions: Human immunodeficiency virus 1, NL4-3, HEK293, 48 h
[10] = biological target: C-C chemokine receptor type 4 (Homo sapiens) (UniProt P51679); assay: Displacement of [125I]TARC form CCR4 expressed in CHO cells by scintillation counting; assay type: cell-based
Sequence of C-C chemokine receptor type 4 (Homo sapiens) (P51679 whole entry): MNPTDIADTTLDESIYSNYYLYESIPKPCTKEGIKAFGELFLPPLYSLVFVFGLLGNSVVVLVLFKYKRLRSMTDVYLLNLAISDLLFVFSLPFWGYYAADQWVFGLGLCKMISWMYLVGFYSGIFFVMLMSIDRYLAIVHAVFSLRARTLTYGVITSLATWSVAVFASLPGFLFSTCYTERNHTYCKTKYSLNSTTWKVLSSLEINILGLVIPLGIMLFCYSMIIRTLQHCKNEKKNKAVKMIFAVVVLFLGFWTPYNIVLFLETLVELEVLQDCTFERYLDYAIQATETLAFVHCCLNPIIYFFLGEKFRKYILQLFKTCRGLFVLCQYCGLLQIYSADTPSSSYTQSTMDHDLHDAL

[11] = biological target: T1, C-X-C chemokine receptor type 4; assay: Inhibition of Mab A80 binding to CXCR4 expressed in human MOLT4 cells by FACS analysis; assay type: cell-based; conditions: MOLT-4
[12] = Half life in Sprague-Dawley rat at 10 mg/kg, iv administered as single dose; assay type: ADME, organism-based; design: dose 10 mg/kg, route intravenous; conditions: in vivo
[13] = tested on: Human immunodeficiency virus 1; assay: Antiviral activity against HIV1 R5 infected in human PBMC assessed as inhibition of viral p24 antigen production after 7 to 10 days by ELISA; assay type: functional, organism-based; conditions: Human immunodeficiency virus 1, R5
[14] = tested on: Human immunodeficiency virus 1; assay: Antiviral activity against NRTI-resistant HIV1 HXB2 infected in HEK293 cells assessed as inhibition of viral replication after 2 days; assay type: functional, organism-based; conditions: Human immunodeficiency virus 1, HXB2, HEK293, 48 h
[15] = tested on: C-X-C chemokine receptor type 4 (Homo sapiens), P61073 [V112A]; assay: (§1) Inhibition of Mab 12G5 binding to CXCR4 V112A mutant expressed in HEK293 cells; assay type: cell-based
Sequence of C-X-C chemokine receptor type 4 (Homo sapiens), P61073 [V112A] (P61073 whole entry V112A): as the sequence (P61073 whole entry H113A) above, with V112A, A113H counted along it

[16] = biological target: C-X-C chemokine receptor type 4 (Homo sapiens, UniProt P61073, V112A); assay: as §1; assay type: cell-based
Sequence of C-X-C chemokine receptor type 4 (Homo sapiens, UniProt P61073, V112A) (P61073 whole entry V112A): as the sequence (P61073 whole entry H113A) above, with V112A, A113H counted along it

[17] = tested on: Human immunodeficiency virus 1; assay: Antiviral activity against multidrug resistant HIV1 HXB2 infected in HEK293 cells assessed as inhibition of viral replication after 2 days; assay type: functional, organism-based; conditions: Human immunodeficiency virus 1, HXB2, HEK293, 48 h
[18] = biological target: T1, C-X-C chemokine receptor type 4; assay: Displacement of [125I]SDF-1alpha form CXCR4 expressed in CHO cells by scintillation counting; assay type: cell-based
[19] = tested on: Human immunodeficiency virus 1; assay: Antiviral activity against PI-resistant HIV1 HXB2 infected in HEK293 cells assessed as inhibition of viral replication after 2 days; assay type: functional, organism-based; conditions: Human immunodeficiency virus 1, HXB2, HEK293, 48 h
[20] = biological target: T1, C-X-C chemokine receptor type 4; assay: Inhibition of Mab 12G5 binding to CXCR4 expressed in human MOLT4 cells at 10 nM measured post drug washout by FACS analysis; assay type: cell-based; conditions: MOLT-4
[21] = Oral bioavailability in Sprague-Dawley rat at 10 mg/kg administered as single dose; assay type: ADME, organism-based; conditions: in vivo
[22] = biological target: T1, C-X-C chemokine receptor type 4; assay: Displacement of [125I]SDF-1alpha form CXCR4 expressed in human MOLT4 cells by scintillation counting; assay type: cell-based; conditions: MOLT-4
[23] = biological target: C-X-C chemokine receptor type 4 (Homo sapiens, UniProt P61073, W283A)
Sequence of C-X-C chemokine receptor type 4 (Homo sapiens, UniProt P61073, W283A) (P61073 whole entry W283A): as the sequence (P61073 whole entry H113A) above, with A113H, W283A counted along it

[24] = biological target: C-X-C chemokine receptor type 4 (Homo sapiens, UniProt P61073, H281A); assay: (§2) Inhibition of Mab 12G5 binding to CXCR4 H281A mutant expressed in HEK293 cells; assay type: cell-based
Sequence of C-X-C chemokine receptor type 4 (Homo sapiens, UniProt P61073, H281A) (P61073 whole entry H281A): as the sequence (P61073 whole entry H113A) above, with A113H, H281A counted along it

[25] = tested on: C-X-C chemokine receptor type 4 (Homo sapiens), P61073 [H281A]; assay: as §2; assay type: cell-based
Sequence of C-X-C chemokine receptor type 4 (Homo sapiens), P61073 [H281A] (P61073 whole entry H281A): as the sequence (P61073 whole entry H113A) above, with A113H, H281A counted along it

[26] = tested on: C-X-C chemokine receptor type 4 (Homo sapiens), P61073 [V99A]; assay: (§3) Inhibition of Mab 12G5 binding to CXCR4 V99A mutant expressed in HEK293 cells; assay type: cell-based
Sequence of C-X-C chemokine receptor type 4 (Homo sapiens), P61073 [V99A] (P61073 whole entry V99A): as the sequence (P61073 whole entry H113A) above, with V99A, A113H counted along it

[27] = biological target: C-X-C chemokine receptor type 4 (Homo sapiens, UniProt P61073, V99A); assay: as §3; assay type: cell-based
Sequence of C-X-C chemokine receptor type 4 (Homo sapiens, UniProt P61073, V99A) (P61073 whole entry V99A): as the sequence (P61073 whole entry H113A) above, with V99A, A113H counted along it

[28] = tested on: Human immunodeficiency virus 1; assay: Antiviral activity against HIV1 NL4-3 infected in SCID mouse assessed as viral p24 antigen level in spleen at 10 mg/kg, po administered as single dose after 7 days; assay type: functional
[29] = tested on: Human immunodeficiency virus 1; assay: Antiviral activity against HIV1 NL4-3 infected in human PBMC assessed as inhibition of viral p24 antigen production after 7 to 10 days by ELISA; assay type: functional, organism-based; conditions: Human immunodeficiency virus 1, NL4-3
[30] = biological target: C-C chemokine receptor type 2 (Homo sapiens) (UniProt P41597); assay: Displacement of [125I]MCP1 form CCR2b expressed in CHO cells by scintillation counting; assay type: cell-based
Sequence of C-C chemokine receptor type 2 (Homo sapiens) (P41597 whole entry, looked up): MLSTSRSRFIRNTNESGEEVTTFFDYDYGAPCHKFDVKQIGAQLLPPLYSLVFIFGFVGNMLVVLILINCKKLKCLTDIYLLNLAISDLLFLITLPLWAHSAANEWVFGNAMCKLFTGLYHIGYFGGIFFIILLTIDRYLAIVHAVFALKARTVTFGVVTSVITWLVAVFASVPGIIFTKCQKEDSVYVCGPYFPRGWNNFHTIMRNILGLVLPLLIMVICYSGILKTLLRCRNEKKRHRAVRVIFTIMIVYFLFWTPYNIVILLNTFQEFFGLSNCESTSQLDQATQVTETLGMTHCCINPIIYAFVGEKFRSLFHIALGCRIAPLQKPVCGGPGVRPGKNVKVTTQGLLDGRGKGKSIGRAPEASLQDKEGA

[31] = tested on: Human immunodeficiency virus 1; assay: Antiviral activity against HIV1 NL4-3 infected in HEK293 cells assessed as inhibition of viral replication after 2 days; assay type: functional, organism-based; conditions: Human immunodeficiency virus 1, NL4-3, HEK293, 48 h
[32] = tested on: C-X-C chemokine receptor type 4 (Homo sapiens), P61073 [D262A]; conditions: HEK293
Sequence of C-X-C chemokine receptor type 4 (Homo sapiens), P61073 [D262A] (P61073 whole entry D262A): as the sequence (P61073 whole entry H113A) above, with A113H, D262A counted along it

[33] = biological target: T1, C-X-C chemokine receptor type 4; assay: Inhibition of Mab 12G5 binding to wild type CXCR4 expressed in HEK293 cells; assay type: cell-based
[34] = tested on: Human immunodeficiency virus 1; assay: Antiviral activity against NNRTI-resistant HIV1 HXB2 infected in HEK293 cells assessed as inhibition of viral replication after 2 days; assay type: functional, organism-based; conditions: Human immunodeficiency virus 1, HXB2, HEK293, 48 h
[35] = biological target: T1, C-X-C chemokine receptor type 4; assay: Inhibition of Mab 12G5 binding to CXCR4 expressed in human MOLT4 cells at 10 nM measured after 6 hrs post drug washout by FACS analysis; assay type: cell-based; conditions: MOLT-4
[36] = tested on: C-X-C chemokine receptor type 4 (Homo sapiens), P61073 [I284A]; assay: (§4) Inhibition of Mab 12G5 binding to CXCR4 I284A mutant expressed in HEK293 cells; assay type: cell-based
Sequence of C-X-C chemokine receptor type 4 (Homo sapiens), P61073 [I284A] (P61073 whole entry I284A): as the sequence (P61073 whole entry H113A) above, with A113H, I284A counted along it

[37] = biological target: C-X-C chemokine receptor type 4 (Homo sapiens, UniProt P61073, I284A); assay: as §4; assay type: cell-based
Sequence of C-X-C chemokine receptor type 4 (Homo sapiens, UniProt P61073, I284A) (P61073 whole entry I284A): as the sequence (P61073 whole entry H113A) above, with A113H, I284A counted along it

[38] = Clearance in Sprague-Dawley rat at 10 mg/kg, iv administered as single dose; assay type: ADME, organism-based; design: dose 10 mg/kg, route intravenous; conditions: in vivo
[39] = Tmax in Sprague-Dawley rat at 10 mg/kg, po administered as single dose; conditions: in vivo
[40] = biological target: C-X-C chemokine receptor type 4 (Homo sapiens, UniProt P61073, D171A)
Sequence of C-X-C chemokine receptor type 4 (Homo sapiens, UniProt P61073, D171A) (P61073 whole entry D171A): as the sequence (P61073 whole entry H113A) above, with A113H, D171A counted along it

CCCN(CCC)CCCCN(C)Cc1ccc(CN(Cc2ncc[nH]2)Cc2nccn2C)cc1.O=C(O)C(O)C(O)C(=O)O showed an EC50 [1] of 0.38 nM, an IC50 [2] of 0.8 nM and an IC90 [3] greater than 10 nM. The IC50 [4] was 3.1 nM, the Cmax [5] was 0.0863 µg/mL and the EC50 [6] was greater than 200 nM. For the same compound, the inhibition [7] was “Active”, the IC50 [8] was 1.6 nM and the IC50 [9] was 0.4 nM. For the same compound, the Activity [10] was “inactive”, the inhibition [11] was “Dose-dependent effect” and the half-life [12] was 99 h. For the same compound, the EC50 [13] was greater than 200 nM, the IC50 [14] was 0.6 nM and the IC90 [15] was greater than 10 nM. The IC50 [16] was 2.2 nM, the IC50 [17] was 0.7 nM and the Activity [18] was “Dose-dependent effect”. The IC50 [18] was 0.61 nM, the IC50 [19] was 0.7 nM and the inhibition [20] was “Active”. For the same compound, the bioavailability [21] was 25.6%, the Activity [22] was “Active” and the IC50 [23] was 1.3 nM. For the same compound, the IC50 [24] was 14.1 nM, the IC90 [25] was 248 nM and the IC90 [26] was 7.4 nM. For the same compound, the IC50 [27] was 1.5 nM, the Activity [28] was less than 5 pg/mL and the EC50 [29] was 1.1 nM. For the same compound, the Activity [30] was “inactive”, the IC50 [31] was 0.5 nM and the IC90 [32] was 8.1 nM. For the same compound, the IC50 [33] was 2.8 nM, the IC90 [33] was 8.2 nM and the IC50 [34] was 0.8 nM. For the same compound, the inhibition [35] was 40%, the IC90 [36] was 6.8 nM and the IC50 [37] was 1.2 nM. For the same compound, the clearance [38] was 3.9 L/h/kg, the Tmax [39] was 2.3 h and the IC50 [40] was 3.2 nM.
